pIC50: −log10 of the molar value. Converted amounts (≈) assume the structure as drawn. Read-outs that look alike come from different tables or passages of the source. *1 amine or outer side, *2 acyl side, *3 side chain or, on linkers, in order; H or OH if unused. Where a SMILES comes first, the peptide text is derived from it. [ ]: non-standard residue; d: D form. The star is where a group is joined. Camptothecin(20R,20-O) = CC[C@]1(O*)C(=O)OCc2c1cc1n(c2=O)Cc2cc3ccccc3nc2-1; X2 = CCCNC(=O)Nc1cccc(S(=O)(=O)Nc2cccc(C(CC(=O)O)NC(=O)Nc3ccc(N*)cc3)c2)c1; X1 = CCCNC(=O)Nc1cccc(S(=O)(=O)Nc2cccc(C(CC(=O)O)N*)c2)c1; NH(1,4-C6H4)NHCS = S=C(Nc1ccc(N[*:1])cc1)[*:2]; CO = O=C([*:1])[*:2]; GABA = NCCCC(=O)O
Key:
αvβ3 receptor = target: T1, αvβ3 receptor (Homo sapiens, UniProt P05106+P06756); test: αvβ3 binding test (echistatin displacement, WGA SPA beads); settings: αvβ3 from human A375 cells
T1 construct: αvβ3 from human A375 cells was purified; endogenous in cells; host or cells: human A375 cells (receptor purified from the cells, analogous to Wong et al. 1996)
T1 sequence (P06756 31-889 limits assumed): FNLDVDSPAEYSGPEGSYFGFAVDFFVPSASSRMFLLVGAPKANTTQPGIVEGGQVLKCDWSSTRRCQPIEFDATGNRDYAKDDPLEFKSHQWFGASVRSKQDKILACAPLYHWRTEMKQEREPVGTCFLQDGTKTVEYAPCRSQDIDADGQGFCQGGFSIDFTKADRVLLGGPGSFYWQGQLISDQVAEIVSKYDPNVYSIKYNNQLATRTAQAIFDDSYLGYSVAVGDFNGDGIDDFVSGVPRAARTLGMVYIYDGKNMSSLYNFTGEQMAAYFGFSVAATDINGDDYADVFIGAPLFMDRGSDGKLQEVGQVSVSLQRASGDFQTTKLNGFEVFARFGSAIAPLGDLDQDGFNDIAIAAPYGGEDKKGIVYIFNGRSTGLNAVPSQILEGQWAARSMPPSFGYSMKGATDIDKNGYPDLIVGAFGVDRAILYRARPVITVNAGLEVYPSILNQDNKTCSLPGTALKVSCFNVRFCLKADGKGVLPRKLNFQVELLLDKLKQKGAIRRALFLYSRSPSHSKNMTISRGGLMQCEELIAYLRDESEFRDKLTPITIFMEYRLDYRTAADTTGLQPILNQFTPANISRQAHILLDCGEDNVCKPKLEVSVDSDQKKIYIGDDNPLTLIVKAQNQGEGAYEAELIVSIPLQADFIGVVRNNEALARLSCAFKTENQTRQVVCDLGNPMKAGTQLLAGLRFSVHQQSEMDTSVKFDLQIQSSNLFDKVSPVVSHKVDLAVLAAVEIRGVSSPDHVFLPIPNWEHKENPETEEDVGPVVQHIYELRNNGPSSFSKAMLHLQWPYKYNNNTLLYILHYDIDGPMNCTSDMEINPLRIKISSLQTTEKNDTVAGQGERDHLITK
T1 sequence (P06756 891-1048 partner limits assumed): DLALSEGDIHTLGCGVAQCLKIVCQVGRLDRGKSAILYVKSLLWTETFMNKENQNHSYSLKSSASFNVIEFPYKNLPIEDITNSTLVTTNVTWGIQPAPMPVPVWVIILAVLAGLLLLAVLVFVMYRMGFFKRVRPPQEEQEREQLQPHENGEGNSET
T1 sequence (P05106 27-788): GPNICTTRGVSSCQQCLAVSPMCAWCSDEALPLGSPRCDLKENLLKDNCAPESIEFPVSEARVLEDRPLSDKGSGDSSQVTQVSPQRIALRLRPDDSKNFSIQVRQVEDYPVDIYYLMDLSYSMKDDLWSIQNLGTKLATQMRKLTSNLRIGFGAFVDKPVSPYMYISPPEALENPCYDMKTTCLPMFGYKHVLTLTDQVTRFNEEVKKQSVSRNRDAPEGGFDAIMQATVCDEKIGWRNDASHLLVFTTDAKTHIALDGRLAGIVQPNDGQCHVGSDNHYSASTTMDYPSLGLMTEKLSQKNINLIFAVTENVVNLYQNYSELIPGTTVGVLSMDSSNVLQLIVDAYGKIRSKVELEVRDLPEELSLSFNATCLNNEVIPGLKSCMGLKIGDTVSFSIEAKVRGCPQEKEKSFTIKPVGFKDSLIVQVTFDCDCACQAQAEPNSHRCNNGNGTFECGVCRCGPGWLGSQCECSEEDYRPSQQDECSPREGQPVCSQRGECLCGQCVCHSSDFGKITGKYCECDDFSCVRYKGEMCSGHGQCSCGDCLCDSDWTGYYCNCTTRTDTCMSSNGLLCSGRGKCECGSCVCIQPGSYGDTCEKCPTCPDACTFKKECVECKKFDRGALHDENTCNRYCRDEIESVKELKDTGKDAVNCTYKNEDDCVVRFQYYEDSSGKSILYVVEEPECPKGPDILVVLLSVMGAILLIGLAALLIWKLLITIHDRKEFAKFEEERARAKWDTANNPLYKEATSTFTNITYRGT
Experimental: αvβ3 from human A375 cells was purified analogously to a procedure which was described by Wong et al. (Molecular Pharmacology, 50, 529-537 (1996)). In each case, 10 μl of αvβ3 (5 ng) in TBS pH 7.6, 2 mM CaCl2, 1 mM MgCl2, 1% n-octylglucopyranoside (Sigma); 10 μl of test substance in TBS pH 7.6, 0.1% DMSO and 45 μl of TBS pH 7.6, 2 mM CaCl2, 1 mM MgCl2, 1 mM MnCl2 were incubated at room temperature for 1 h. In each case, 25 μl of WGA SPA beads (Amersham, 4 mg/ml) and 10 μl of echistatin (0.1 μCi, Amersham, chloramine-T labelled) were then added. After 16 hours at room temperature, the samples were measured in a scintillation measuring apparatus (Wallac 1450).

[1] = In-vivo inhibition of tumour growth using a nude mouse model; parameters: species or system athymic nude mice (NMRI nu/nu strain); settings: NMRI nu/nu, mouse, in vivo; intravenously or intraperitoneally day 1-3 and day 15-17; nude mice; read-out: MTD (dose marked MTD)
Excerpt: (§1) In all in-vivo experiments for investigating the inhibition of tumour growth, athymic nude mice (NMRI nu/nu strain) were used. The tumour was developed by serial passage in nude mice. The human origin of the tumour was confirmed by isoenzymatic and immunohistochemical methods.
(§2) The tumour was implanted subcutaneously in both flanks of nu/nu nude mice 6 to 8 weeks old. The treatment was started, depending on the doubling time, as soon as the tumours had reached a diameter of 5-7 mm. The mice were assigned to the treatment group or the control group (5 mice per group having 8-10 assessable tumours) by randomization. The individual tumours of the control group all grew progressively.
(§3) The size of the tumours was measured in two dimensions by means of a slide gauge. The tumour volume, which correlated well with the cell count, was then used for all assessments. The volume was calculated according to the formula “length×breadth×breadth/2” ([a×b^2]/2, a and b represent two diameters arranged at right angles).
(§4) The values of the relative tumour volume (RTV) were calculated for each individual tumour by dividing the tumour size on day X with the tumour size on day 0 (at the time of randomization). The average values of the RTV were then used for the further assessment.
(§5) The inhibition of the increase of the tumour volume (tumour volume of the test group/control group, T/C, in per cent) was the final measured value.
(§6) The compounds can be administered with a daily or an intermittent therapy schedule through a couple of days either by intraperitoneal, intravenious, oral or subcutaneous route.
(§7) The compounds are dissolved in PEG400/water 2:1 and administered intravenously or intraperitoneally from day 1-3 and day 15-17.

[2] = tested on: melanoma xenograft model (MEXF 989); test: as above; parameters: species or system athymic nude mice (NMRI nu/nu strain); settings: for optimal T/C in % / lethality: intravenously or intraperitoneally day 1-3 and day 15-17; for optimal T/C in %: MEXF 989; for lethality: MEXF 989 nude mice; for inhibition of the tumor growth (in words): subcutaneously growing melanoma xenograft MEXF 989
Excerpt: as §1, §2, §3, §4, §5, §6, §7

MMP-2 = target: T2, MMP-2 (Homo sapiens, UniProt P08253); test: Cleavage of conjugates by MMP-2 in buffer (HPLC); assay type: biochemical; settings: after 6 h incubation with MMP-2; buffer pH 7.5
T2 construct: purchased Calbiochem
T2 sequence (P08253 110-660): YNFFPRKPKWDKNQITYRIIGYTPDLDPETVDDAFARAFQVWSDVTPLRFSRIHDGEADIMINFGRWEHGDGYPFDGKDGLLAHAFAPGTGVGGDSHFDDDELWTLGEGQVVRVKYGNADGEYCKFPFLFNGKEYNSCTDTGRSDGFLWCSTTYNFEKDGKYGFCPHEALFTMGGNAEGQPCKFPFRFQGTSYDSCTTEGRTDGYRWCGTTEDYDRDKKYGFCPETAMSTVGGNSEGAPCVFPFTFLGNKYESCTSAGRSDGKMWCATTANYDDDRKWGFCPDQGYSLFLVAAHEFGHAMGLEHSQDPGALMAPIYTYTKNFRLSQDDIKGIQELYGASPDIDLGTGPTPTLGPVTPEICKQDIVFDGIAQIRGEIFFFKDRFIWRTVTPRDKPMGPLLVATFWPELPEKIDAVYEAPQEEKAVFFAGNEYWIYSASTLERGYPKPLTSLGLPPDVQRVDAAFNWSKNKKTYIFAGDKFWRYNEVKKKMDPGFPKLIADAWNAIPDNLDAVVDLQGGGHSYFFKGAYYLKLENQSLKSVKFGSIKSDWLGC
Experimental: 2.5 μl MMP-2 (Calbiochem) with a specific activity of 60 μU/μl are incubated with 10 nM of the conjugates exemplified in the example series 1-25 in 1 ml of a medium consisting of 50 mM Tris-HCl pH 7.5, 0.2 M NaCl, 10 mM CaCL2*2H2O and 0.05% Brij 35. The enzyme mediated cleavage of the conjugates is detected by HPLC analysis using an RP18 (5 μM) column with 70% HClO4/water (0.4% v/v) as eluent A and acentonitrile as eluent B (UV detection at […]). The efficiency of the cleavage is assessed by comparing the peak areas of the intact conjugate (starting material) and the cleavage product (tripeptide conjugate of camptothecin) after 6 h and 24 h incubation (cf. Table 5).

B16F10 = test: Growth inhibition test (MTT), cytotoxic action on tumour cell lines; assay type: cell-based, mouse
Experimental: (§8) The human large intestine cell lines SW 480 and HT29 (ATCC No. CCL 228 and HTB38 and the mouse melanoma cell line B16F10 (CRL 6475) were grown to confluence in Roux dishes in RPMI 1640 medium with addition of 10% FCS. They were then trypsinized and taken up in RPMI plus 10% FCS to a cell count of 50,000 cells or, for B16F10, 20,000 cells per ml. 100 μl of cell suspension/well were added to a 96 microwell plate and incubated at 37° C. for 1 day in a CO2 incubator. A further 100 μl of RPMI medium and 1 μl of DMSO were then added with the test substances. The growth was checked after day 6. For this, 25 μl of MTT solution (3-(4,5-dimethylthiazol-2-yl)-2,5-diphenyltetrazolium bromide) was added to each well at a starting concentration of 5 mg/ml of H2O. The plate was incubated at 37° C. for 5 hours in a CO2 incubator. The medium was then aspirated and 100 μl of i-propanol/well were added. After shaking with 100 μl of H2O for 30 min, the extinction was measured at 595 nm using a Multiplate Reader (BIO-RAD) 3550-UV).
(§9) The cytostatic action is indicated in Table 2 as an IC50 value, in each case for the individual cell lines.

SW 480 = test: as above; assay type: cell-based, human
Experimental: as §8, §9

HT29 = test: as above; assay type: cell-based, human
Experimental: as §8, §9

hemopoietic stem cells = test: CSF-induced proliferation of hemopoietic stem cells (colony formation); assay type: cell-based, mice; settings: Mus musculus, Bone marrow cell, 168 h; murine bone marrow cells, GM-CSF, 7 days; read-out: IC50 values of the inhibition of colony formation of hemopoietic stem cells
Experimental: Bone marrow cells are flushed out of the femur of mice. 10^5 cells are incubated in McCoy 5A medium (0.3% agar) together with recombinant murine GM-CSF (Genzyme; parent cell colony formation) and the substances (10^−4 to 100 μg/ml) at 37° C. and 7% CO2. 7 days later, the colonies […] and clusters (17-50 cells) are counted.

[3] = read-out: IC50 values of the binding to the αvβ3 receptor
[4] = IC50 values of the binding to the αvβ3 receptor
[5] = B16F10, MTT after day 6, read-out: IC50 values of the cytotoxic action on tumour cell lines, B16F10
[6] = SW480, MTT after day 6, read-out: IC50 values of the cytotoxic action on tumour cell lines, SW480
[7] = HT29, MTT after day 6, read-out: IC50 values of the cytotoxic action on tumour cell lines, HT29

## CCCNC(=O)Nc1cccc(S(=O)(=O)Nc2cccc(C(CC(=O)O)NC(=O)Nc3ccc(NC(=S)N4CCC[C@@H]4C(=O)N[C@@H](CC(C)C)C(=O)NCC(=O)N[C@H](CC(C)C)C(=O)N[C@H](Cc4c[nH]cn4)C(=O)N[C@@H](C(=O)O[C@@]4(CC)C(=O)OCc5c4cc4n(c5=O)Cc5cc6ccccc6nc5-4)C(C)C)cc3)c2)c1 (single isomer, unassigned) [Example 2]
αvβ3 receptor; [3]
  pIC50: 7.60
[1]
  MTD: 12 mg/kg/day
[2]; 6 mg/kg/day
  optimal T/C in %: 17.7%
  lethality: 0/5
[2]; 12 mg/kg/day
  optimal T/C in %: 7.4%
  lethality: 1/5 (MTD)
[2]
  inhibition of the tumor growth (in words): effected inhibitions of the tumor growth
MMP-2
  MMP-2 mediated cleavage Peak area product/educt x100: 18
B16F10; mouse, 6 days
  pIC50: 6.30
SW 480; human, 6 days
  pIC50: 7.00
HT29; human, 6 days
  pIC50: 6.74

## CCCNC(=O)Nc1cccc(S(=O)(=O)Nc2cccc(C(CC(=O)O)NC(=O)Nc3ccc(NC(=S)N4CCC[C@@H]4C(=O)N[C@@H](CC(C)C)C(=O)NCC(=O)N[C@H](CC(C)C)C(=O)N[C@H](CC(N)=O)C(=O)N[C@@H](C(=O)O[C@@]4(CC)C(=O)OCc5c4cc4n(c5=O)Cc5cc6ccccc6nc5-4)C(C)C)cc3)c2)c1 (single isomer, unassigned) [Example 10]
αvβ3 receptor; [3]
  pIC50: 7.70
[1]
  MTD: 6 mg/kg/day
[2]; 6 mg/kg/day
  optimal T/C in %: 11.4%
  lethality: 0/5 (MTD)
[2]
  inhibition of the tumor growth (in words): effected inhibitions of the tumor growth
MMP-2
  MMP-2 mediated cleavage Peak area product/educt x100: 16
B16F10; mouse, 6 days
  pIC50: 6.22
SW 480; human, 6 days
  pIC50: 7.15
HT29; human, 6 days
  pIC50: 7.00

## CCCNC(=O)Nc1cccc(S(=O)(=O)Nc2cccc(C(CC(=O)O)NC(=O)Nc3ccc(NC(=S)N4CCC[C@@H]4C(=O)N[C@@H](CC(C)C)C(=O)NCC(=O)N[C@H](CSC)C(=O)N[C@H](Cc4c[nH]cn4)C(=O)N[C@@H](C(=O)O[C@@]4(CC)C(=O)OCc5c4cc4n(c5=O)Cc5cc6ccccc6nc5-4)C(C)C)cc3)c2)c1 (single isomer, unassigned) [Example 25]
[1]
  MTD: 6 mg/kg/day
[2]; 6 mg/kg/day
  optimal T/C in %: 19.6%
  lethality: 1/5 (MTD)
[2]
  inhibition of the tumor growth (in words): effected inhibitions of the tumor growth
MMP-2
  MMP-2 mediated cleavage Peak area product/educt x100: 9
B16F10; mouse, 6 days
  pIC50: 6.60
SW 480; human, 6 days
  pIC50: 7.22
HT29; human, 6 days
  pIC50: 7.10

## CC[C@@]1(O)C(=O)OCc2c1cc1n(c2=O)Cc2cc3ccccc3nc2-1 [Camptothecin, 20(S)-Camptothecin, reference compound]
Hemopoietic stem cells
  IC50: 0.25 ng/mL (≈ 0.718 nM)

## CCCNC(=O)Nc1cccc(S(=O)(=O)Nc2cccc(C(CC(=O)O)NC(=O)Nc3ccc(NC(=S)N4CCC[C@@H]4C(=O)N[C@@H](CC(C)C)C(=O)NCC(=O)N[C@H](CC(C)C)C(=O)N[C@H](CSC)C(=O)N[C@@H](C(=O)O[C@@]4(CC)C(=O)OCc5c4cc4n(c5=O)Cc5cc6ccccc6nc5-4)C(C)C)cc3)c2)c1 (stereo partly drawn) [Example 14] ({X1-CO}-[NH(1,4-C6H4)NHCS][dP]LG[dL][dC](Me)[dV]-{Camptothecin(20R,20-O)})
αvβ3 receptor; [4]
  pIC50: 7.15
MMP-2
  MMP-2 mediated cleavage Peak area product/educt x100: 5
B16F10; [5]
  pIC50: 6.40
SW 480; [6]
  pIC50: 7.30
HT29; [7]
  pIC50: 7.22

## CCCNC(=O)Nc1cccc(S(=O)(=O)Nc2cccc(C(CC(=O)O)NC(=O)Nc3ccc(NC(=O)NCCCC(=O)N4CCC[C@@H]4C(=O)N[C@@H](CC(C)C)C(=O)NCC(=O)N[C@H](CC(C)C)C(=O)N[C@H](Cc4c[nH]cn4)C(=O)N[C@@H](C(=O)O[C@@]4(CC)C(=O)OCc5c4cc4n(c5=O)Cc5cc6ccccc6nc5-4)C(C)C)cc3)c2)c1 (stereo partly drawn) [Example 17] ({X2-CO-GABA}-[dP]LG[dL][dH][dV]-{Camptothecin(20R,20-O)})
αvβ3 receptor; [4]
  pIC50: 7.30
MMP-2
  MMP-2 mediated cleavage Peak area product/educt x100: 16
B16F10; [5]
  pIC50: 6.22
SW 480; [6]
  pIC50: 7.15
HT29; [7]
  pIC50: 7.00

## CCCNC(=O)Nc1cccc(S(=O)(=O)Nc2cccc(C(CC(=O)O)NC(=O)Nc3ccc(NC(=O)NCCCC(=O)N4CCC[C@@H]4C(=O)N[C@@H](CC(C)C)C(=O)NCC(=O)N[C@H](CC(C)C)C(=O)N[C@H](CC(N)=O)C(=O)N[C@@H](C(=O)O[C@@]4(CC)C(=O)OCc5c4cc4n(c5=O)Cc5cc6ccccc6nc5-4)C(C)C)cc3)c2)c1 (stereo partly drawn) [Example 18] ({X2-CO-GABA}-[dP]LG[dL][dN][dV]-{Camptothecin(20R,20-O)})
αvβ3 receptor; [4]
  pIC50: 7.70
MMP-2
  MMP-2 mediated cleavage Peak area product/educt x100: 51
B16F10; [5]
  pIC50: 7.15
SW 480; [6]
  pIC50: 7.46
HT29; [7]
  pIC50: 7.60
